We go through ten molecules from ChEMBL document CHEMBL1135322, “Glutathione-like tripeptides as inhibitors of glutathionylspermidine synthetase. Part 1: Substitution of the glycine carboxylic acid group” (Bioorg Med Chem Lett, 2002).

Values joined by “and” are separate entries in the source; they are usually repeats but may differ in a detail not shown here. Equal entries are not always repeated. Where a SMILES comes first, the peptide text is derived from it.

In general, IC50 refers to the concentration at which inhibition is half-maximal. High values mean weaker potency in that assay, low ones greater potency in that assay. The term inhibition denotes how much of the control response was suppressed. A word on the Ki: it is the dissociation constant of the complex between target and ligand, obtained from inhibition or displacement. Low values mean higher affinity, high ones lower affinity. As a reminder, the half-life is how long it takes for the measured level to halve. A high value points to slow loss. In general, Km refers to the substrate concentration at which the rate is half of its maximum.

The target of data set [1] is T1, Glutathionylspermidine synthase (Crithidia fasciculata, UniProt P90518).
T1 sequence (P90518 whole entry): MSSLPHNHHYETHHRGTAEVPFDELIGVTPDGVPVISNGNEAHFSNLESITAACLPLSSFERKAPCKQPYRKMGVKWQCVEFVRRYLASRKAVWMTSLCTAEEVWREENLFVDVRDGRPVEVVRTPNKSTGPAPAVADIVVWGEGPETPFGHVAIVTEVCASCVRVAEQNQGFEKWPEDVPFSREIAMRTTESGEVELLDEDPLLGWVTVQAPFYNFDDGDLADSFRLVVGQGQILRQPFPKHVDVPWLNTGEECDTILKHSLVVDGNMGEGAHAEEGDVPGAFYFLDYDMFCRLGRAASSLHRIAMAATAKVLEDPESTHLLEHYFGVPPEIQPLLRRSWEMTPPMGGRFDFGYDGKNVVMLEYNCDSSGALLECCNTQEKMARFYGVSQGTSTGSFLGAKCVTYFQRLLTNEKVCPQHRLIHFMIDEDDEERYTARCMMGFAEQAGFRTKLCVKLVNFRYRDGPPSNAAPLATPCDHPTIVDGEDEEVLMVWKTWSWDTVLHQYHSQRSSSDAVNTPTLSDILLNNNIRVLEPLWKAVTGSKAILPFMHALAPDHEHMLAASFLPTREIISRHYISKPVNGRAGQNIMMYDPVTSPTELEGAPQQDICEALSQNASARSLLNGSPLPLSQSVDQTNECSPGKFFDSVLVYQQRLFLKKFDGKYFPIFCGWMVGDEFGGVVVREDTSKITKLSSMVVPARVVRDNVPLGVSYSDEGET
The data set is described as follows: Concentration required for the inhibition of enzyme Glutathionylspermidine Synthetase wild-type enzyme.

The target in data set [2] is T2, Glutathionylspermidine synthase (Crithidia fasciculata) (UniProt P90518).
T2 sequence (whole entry): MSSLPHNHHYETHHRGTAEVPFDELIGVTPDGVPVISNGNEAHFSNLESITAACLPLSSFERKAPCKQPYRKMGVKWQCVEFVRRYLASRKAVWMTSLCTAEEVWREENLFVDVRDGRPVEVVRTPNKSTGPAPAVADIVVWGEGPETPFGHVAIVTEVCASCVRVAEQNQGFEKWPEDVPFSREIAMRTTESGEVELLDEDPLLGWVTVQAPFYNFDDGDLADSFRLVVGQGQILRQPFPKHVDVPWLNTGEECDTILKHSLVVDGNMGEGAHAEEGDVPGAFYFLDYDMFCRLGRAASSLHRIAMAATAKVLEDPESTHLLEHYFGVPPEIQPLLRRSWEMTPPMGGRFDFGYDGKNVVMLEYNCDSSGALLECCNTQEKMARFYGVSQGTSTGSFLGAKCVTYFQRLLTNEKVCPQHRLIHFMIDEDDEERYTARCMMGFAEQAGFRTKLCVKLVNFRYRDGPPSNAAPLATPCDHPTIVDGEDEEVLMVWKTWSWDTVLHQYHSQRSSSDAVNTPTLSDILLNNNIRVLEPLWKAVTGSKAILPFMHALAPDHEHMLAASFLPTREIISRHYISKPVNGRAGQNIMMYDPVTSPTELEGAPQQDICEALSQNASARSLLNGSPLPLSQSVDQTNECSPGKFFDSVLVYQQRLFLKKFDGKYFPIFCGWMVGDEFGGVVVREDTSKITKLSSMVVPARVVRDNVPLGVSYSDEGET
The data set is described as follows: Compound was tested for percent inhibition towards the enzyme Glutathionylspermidine Synthetase wild-type enzyme and compared with 0.5 mM GSH.

The target of data set [3] is T1, Glutathionylspermidine synthase. The data set is described as follows: Inhibition constant was evaluated against enzyme Glutathionylspermidine Synthetase wild-type enzyme.
Data set [4] deals with T2, Glutathionylspermidine synthase (Crithidia fasciculata). Description: Compound was tested for substrate activity towards the enzyme Glutathionylspermidine Synthetase wild-type enzyme and compared with 0.5 mM GSH.
For data set [5] the target is unchanged. Description: (§1) Inhibitory activity against amidase free Glutathionylspermidine Synthetase mutant (C79A). As to conditions: concentration not given here; call rule not given here.
Data set [6] shares this target. The data set is described as follows: (§2) Substrate activity against amidase free Glutathionylspermidine Synthetase mutant (C79A).
In data set [7] the target is T3, Glutathionylspermidine synthase (Crithidia fasciculata, UniProt P90518, C79A). Described as §1.
In data set [8] the target is T3, Glutathionylspermidine synthase. The data set is described as follows: Inhibitory constant against amidase free Glutathionylspermidine Synthetase mutant (C79A).
Data set [9] has the same target. The data set is described as follows: Inhibitory constant against amidase free Glutathionylspermidine Synthetase mutant (C79A); NA denotes not applicable.
Data set [10] is described as follows: Half-life was determined. Particulars: human. The data set is classed as ADME.
Data set [11] has as its target T1, Glutathionylspermidine synthase. Description: Concentration required for the inhibition of enzyme Glutathionylspermidine Synthetase wild-type enzyme; NA denotes not applicable.
In data set [12] the target is T3, Glutathionylspermidine synthase. The data set is described as follows: Inhibitory activity against amidase free Glutathionylspermidine Synthetase mutant (C79A); NA denotes not applicable.
In data set [13] the target is T1, Glutathionylspermidine synthase. Description: Inhibition constant was evaluated against enzyme Glutathionylspermidine Synthetase wild-type enzyme; NA denotes not applicable.
The target is the same in data set [14]. The data set is described as follows: Inhibition constant was evaluated against enzyme Glutathionylspermidine Synthetase; NA denotes not applicable.
Substrate in data set [15]: CC(C)C[C@H](NC(=O)CC[C@H](N)C(=O)O)C(=O)NCc1nn[nH]n1
Description: Michaelis-Menten constant at the concentration of < 0.4 mM. As to conditions: Crithidia fasciculata.

Substrate in data set [16]: CC(C)C[C@H](NC(=O)CC[C@H](N)C(=O)O)C(=O)NCC(N)=O
Described as §2. Particulars: Crithidia fasciculata.

Substrate in data set [17]: CC(C)C[C@H](NC(=O)CC[C@H](N)C(=O)O)C(=O)NCC(=O)O
The data set is described as follows: Compound was tested for substrate activity (Apparent Km) towards the enzyme Glutathionylspermidine Synthetase wild-type enzyme and compared with 0.5 mM GSH. Particulars: Crithidia fasciculata.

T3 sequence (P90518 whole entry C79A): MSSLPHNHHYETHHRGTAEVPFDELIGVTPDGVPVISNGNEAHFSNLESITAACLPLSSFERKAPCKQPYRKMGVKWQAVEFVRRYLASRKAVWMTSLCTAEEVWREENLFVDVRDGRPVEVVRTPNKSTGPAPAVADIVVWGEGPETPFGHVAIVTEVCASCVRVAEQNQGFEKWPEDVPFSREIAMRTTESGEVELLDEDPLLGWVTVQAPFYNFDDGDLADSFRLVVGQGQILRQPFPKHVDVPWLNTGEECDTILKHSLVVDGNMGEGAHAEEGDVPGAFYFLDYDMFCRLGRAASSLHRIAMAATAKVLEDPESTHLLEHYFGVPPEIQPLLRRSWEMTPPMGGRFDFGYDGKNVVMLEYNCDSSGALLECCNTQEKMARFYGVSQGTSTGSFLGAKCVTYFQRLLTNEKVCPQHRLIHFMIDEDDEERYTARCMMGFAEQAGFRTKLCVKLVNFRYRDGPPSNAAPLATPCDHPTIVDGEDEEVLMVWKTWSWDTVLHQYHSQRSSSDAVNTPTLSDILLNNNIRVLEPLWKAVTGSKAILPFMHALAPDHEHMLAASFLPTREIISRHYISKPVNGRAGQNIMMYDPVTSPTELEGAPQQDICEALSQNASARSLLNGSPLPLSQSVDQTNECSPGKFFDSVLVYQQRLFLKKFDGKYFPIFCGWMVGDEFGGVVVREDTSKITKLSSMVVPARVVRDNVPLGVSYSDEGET

Consider `CC(C)C[C@H](NC(=O)CC[C@H](N)C(=O)O)C(=O)NCP(=O)(O)O`, for which the IC50 in data set [1] amounted to 60 µM. The inhibition in data set [2] worked out at 86%. In addition, the Ki in [3] worked out at 60 µM. Further, the Activity in data set [4] amounted to 0%.
With `CC(C)C[C@H](NC(=O)CC[C@H](N)C(=O)O)C(=O)NCc1nnn[nH]1`, the IC50 in data set [1] is 138 µM.
In [1], `Cc1ccc(S(=O)(=O)NC(=O)CNC(=O)[C@H](CC(C)C)NC(=O)CC[C@H](N)C(=O)O)cc1` showed an IC50 of 2 µM. Also, the inhibition in data set [2] came to 2%. The molecule further had an Activity in [4] of 2%.
For `CC(C)C[C@H](NC(=O)CC[C@H](N)C(=O)O)C(=O)NCB(O)O`, the IC50 in data set [1] turned out to be 17.2 µM. Besides, in data set [2], the inhibition came out at 95%. For the same molecule, the Ki in [3] was 81 µM and 18 µM. Further, the Activity in [4] was determined as 1%.
Molecule `CC(C)C[C@H](NC(=O)CC[C@H](N)C(=O)O)C(=O)NCc1nn[nH]n1` had an inhibition in data set [2] of 58%. For the same molecule, in data set [4], the Activity came to 0%.
As for `CCCCOC(=O)CNC(=O)[C@H](CC(C)C)NC(=O)CC[C@H](N)C(=O)O`, the inhibition in [2] worked out at 0%; in [5] it was 26%. For the same molecule, the Activity in data set [4] turned out to be 102%; in data set [6], 3%.
Regarding `CC(C)C[C@H](NC(=O)CC[C@H](N)C(=O)O)C(=O)NCC(=O)NO` (HELM PEPTIDE1{[gGlu].L.G.[ON[*:1]]}$$$$V2.0), the midpoint of inhibition in data set [7], the IC50, lay at 3.2 µM. For the same molecule, the figures for the inhibition in [2] and in [5] were 76% and 98%, respectively. Moreover, the Ki was 2.5 µM in data set [8] and “Not Active” in data set [9]. Moreover, the Activity in data set [4] stood at 44%; in [6], 1%.
`CC(C)C[C@H](NC(=O)CC[C@H](N)C(=O)O)C(=O)NCC(N)=O` (HELM PEPTIDE1{[gGlu].L.G.[am]}$$$$V2.0) had an IC50 in data set [7] of 105 µM. For the same molecule, the results for the inhibition in [2] and in [5] were 0% and 89%, respectively. The Ki entry in data set [9] is “Not Active”. Further, the results for the Activity in [4] and in data set [6] were 93% and 22%, respectively.
Molecule `CC(C)C[C@H](NC(=O)CC[C@H](N)C(=O)O)C(=O)NCC(=O)O` (HELM PEPTIDE1{[gGlu].L.G}$$$$V2.0) showed a half-life in data set [10] of 1 h. The IC50 entry in data set [11] and in data set [12] was “Not Active” throughout. For the same molecule, the inhibition in data set [2] and in data set [5] was 0% throughout. In addition, the Ki entry in [13] and in data set [14] was “Not Active” throughout. In addition, the values for the Activity in [4] and in data set [6] were 104% and 125%, respectively.

B1: Glutathionylspermidine synthase (Crithidia fasciculata), P90518 (protein)
chain: MSSLPHNHHYETHHRGTAEVPFDELIGVTPDGVPVISNGNEAHFSNLESITAACLPLSSFERKAPCKQPYRKMGVKWQCVEFVRRYLASRKAVWMTSLCTAEEVWREENLFVDVRDGRPVEVVRTPNKSTGPAPAVADIVVWGEGPETPFGHVAIVTEVCASCVRVAEQNQGFEKWPEDVPFSREIAMRTTESGEVELLDEDPLLGWVTVQAPFYNFDDGDLADSFRLVVGQGQILRQPFPKHVDVPWLNTGEECDTILKHSLVVDGNMGEGAHAEEGDVPGAFYFLDYDMFCRLGRAASSLHRIAMAATAKVLEDPESTHLLEHYFGVPPEIQPLLRRSWEMTPPMGGRFDFGYDGKNVVMLEYNCDSSGALLECCNTQEKMARFYGVSQGTSTGSFLGAKCVTYFQRLLTNEKVCPQHRLIHFMIDEDDEERYTARCMMGFAEQAGFRTKLCVKLVNFRYRDGPPSNAAPLATPCDHPTIVDGEDEEVLMVWKTWSWDTVLHQYHSQRSSSDAVNTPTLSDILLNNNIRVLEPLWKAVTGSKAILPFMHALAPDHEHMLAASFLPTREIISRHYISKPVNGRAGQNIMMYDPVTSPTELEGAPQQDICEALSQNASARSLLNGSPLPLSQSVDQTNECSPGKFFDSVLVYQQRLFLKKFDGKYFPIFCGWMVGDEFGGVVVREDTSKITKLSSMVVPARVVRDNVPLGVSYSDEGET
Turning to B1, the Km in data set [15] came out at 34 µM; in data set [16], 245 µM; in data set [17], 34 µM. Further, the Vmax in [16] turned out to be 15%.
